Measured values taken from the Deep4Chem optical property database.
Several values for one entry are separate records, joined by “and”; a condition that tells them apart may be missing. Equal values may be shown once. Values belong to the compound of their own block, whether it stands above or below them.

Assay: solvent given as SMILES

fluorescence lifetime (in CCCCC): 0.74 ns
fluorescence lifetime (in CCCCCC): 0.69 ns
fluorescence lifetime (in CCCCCCC): 0.7 ns
fluorescence lifetime (in CCCCCCCC): 0.7 ns
fluorescence lifetime (in CCCCCCCCC): 0.72 ns
fluorescence lifetime (in CCCCCCCCCC): 0.79 ns
fluorescence lifetime (in CCCCCCCCCCCC): 0.78 ns
fluorescence lifetime (in CCCCCCCCCCCCC): 0.82 ns
fluorescence lifetime (in CCCCCCCCCCCCCCC): 0.81 ns
fluorescence lifetime (in CCCCCCCCCCCCCCCC): 0.82 ns
fluorescence lifetime (in CCCCCCCCCCO): 0.79 ns
fluorescence lifetime (in CCCCCCCCCO): 0.87 ns
fluorescence lifetime (in CCCCCCCCO): 0.84 ns
fluorescence lifetime (in CCCCCCCO): 0.8 ns
fluorescence lifetime (in CCCCCCO): 0.81 ns
fluorescence lifetime (in CCCCCO): 0.77 ns
fluorescence lifetime (in CCCCO): 0.79 ns
fluorescence lifetime (in CCCO): 0.72 ns
fluorescence lifetime (in CCO): 0.82 ns
fluorescence lifetime (in CO): 0.8 ns
SMILES: CCC1(CC)c2cc(-c3ccc(-c4ccc5c(c4)C(CC)(CC)c4cc(C(C)(C)C)ccc4-5)cc3)ccc2-c2ccc(C(C)(C)C)cc21

fluorescence lifetime (in C1CCCCC1): 1.6 ns
fluorescence lifetime (in CC#N): 4.2 ns
fluorescence lifetime (in CCO): 2.8 ns
fluorescence lifetime (in c1ccccc1): 2.8 ns
SMILES: CNc1cccc2c1C(=O)c1ccccc1-2

SMILES: FC(F)(F)c1cc2n(n1)[B-]1(c3ccccc3-c3ccccc31)[n+]1ccc3ccccc3c1-2
fluorescence lifetime (in C1CCCCC1): 1.22 ns
fluorescence lifetime (in Cc1ccccc1): 1.22 ns
fluorescence lifetime (in ClCCl): 13.7 ns

SMILES: COc1ccc(C2=CC(c3ccccc3)=[N+]3C2=Nc2c(-c4ccc(OC)cc4)cc(-c4ccccc4)n2[B-]3(F)F)cc1
fluorescence lifetime (in Cc1ccccc1): 1.56 ns

SMILES: FC(F)(F)c1cc2n(n1)[B-]1(c3ccccc3Oc3ccccc31)[n+]1ccc3ccccc3c1-2
fluorescence lifetime (in C1CCCCC1): 1.79 ns
fluorescence lifetime (in Cc1ccccc1): 1.85 ns
fluorescence lifetime (in ClCCl): 2.45 ns

fluorescence lifetime (in C1CCOC1): 1.77 ns
SMILES: CCn1c2ccccc2c2cc(-c3cc(-c4ccc5c(c4)c4ccccc4n5CC)nc(-c4ccccc4)n3)ccc21

SMILES: Cc1cc(C)c(B(c2ccc(-n3c4ccccc4c4ccccc43)cc2)c2c(C)cc(C)cc2C)c(C)c1
fluorescence lifetime (in Cc1ccccc1): 3.7 ns

fluorescence lifetime (in CO): 1.7 ns
SMILES: CCOC(=O)CCCCCn1c2ccccc2c(=O)c2cc(I)ccc21

fluorescence lifetime (in C1COCCO1): 0.78 ns
SMILES: c1ccc(-c2nc(-c3ccc(-c4ccc(-c5ccc(-c6nc(-c7ccccc7)c(-c7ccccc7)o6)cc5)cc4)cc3)oc2-c2ccccc2)cc1

fluorescence lifetime (in ClC(Cl)Cl): 0.14 ns
SMILES: F[B-]1(F)OC(c2ccc(C(F)(F)F)cc2)=Cc2c3ccccc3cc[n+]21

SMILES: N#Cc1c(-n2c3ccc(Br)cc3c3cc(Br)ccc32)c(C#N)c(-n2c3ccc(Br)cc3c3cc(Br)ccc32)c(-n2c3ccc(Br)cc3c3cc(Br)ccc32)c1-n1c2ccc(Br)cc2c2cc(Br)ccc21
fluorescence lifetime (in Cc1ccccc1): 0.4 ns

SMILES: CCN(CC)c1ccc(-c2nc3c(c4c2-c2ccccc2CC4)-c2ccccc2CC3)cc1
fluorescence lifetime (in C1CCOC1): 1.06 ns
fluorescence lifetime (in CC#N): 0.68 ns
fluorescence lifetime (in CCOC(C)=O): 0.85 ns
fluorescence lifetime (in CO): 0.68 ns
fluorescence lifetime (in CS(C)=O): 1.02 ns
fluorescence lifetime (in Cc1ccccc1): 0.8 ns
fluorescence lifetime (in ClCCl): 1.22 ns

SMILES: CC1(C)c2ccccc2N(c2ccccc2)c2ccc(S(=O)(=O)c3ccc4c(c3)C(C)(C)c3ccccc3N4c3ccccc3)cc21
fluorescence lifetime (in O=P(c1ccccc1)(c1ccccc1)c1ccccc1Oc1ccccc1P(=O)(c1ccccc1)c1ccccc1): 2.06 ns

fluorescence lifetime (in CCO): 0.43 ns
fluorescence lifetime (in ClC(Cl)Cl): 3.44 ns
fluorescence lifetime (in O): 0.13 ns
SMILES: CCOC(=O)c1ccccc1-c1c2ccc(=[N+](CC)CC)cc-2oc2c1c(=O)oc1c3c4c(cc12)CCCN4CCC3

fluorescence lifetime (in ClCCl): 6.2 ns
SMILES: CCCCCCCCCCCCN1C(=O)c2c(c3ccc4cc(-c5ccc(C)cc5)c(OC)cc4c3c3c2ccc2cc(-c4ccc(C)cc4)c(OC)cc23)C1=O

fluorescence lifetime (in CC#N): 1 ns
fluorescence lifetime (in CO): 1 ns
fluorescence lifetime (in ClCCl): 2.8 ns
SMILES: CCCCCCN(CCCCCC)c1ccc(C#Cc2ccc(C#N)cc2)cc1

fluorescence lifetime (in C1CCOC1): 5.1 ns
SMILES: CC(=O)c1ccc(-c2cnc3nn4ccccc4c3n2)cc1

SMILES: Cc1nc(-c2ccc(N3c4ccccc4C(c4ccccc4)(c4ccccc4)c4ccccc43)cc2)cc(-c2ccc(N3c4ccccc4C(c4ccccc4)(c4ccccc4)c4ccccc43)cc2)n1
fluorescence lifetime (in O=P(c1ccccc1)(c1ccccc1)c1ccc2oc3ccc(P(=O)(c4ccccc4)c4ccccc4)cc3c2c1): 11 ns

fluorescence lifetime (in CO): 0.22 ns
fluorescence lifetime (in ClC(Cl)Cl): 0.12 ns
SMILES: Cc1ccc(NC(=O)c2sc(Br)nc2C)cc1

fluorescence lifetime (in C1CCOC1): 6.9 ns
fluorescence lifetime (in C1COCCO1): 7.5 ns
fluorescence lifetime (in CC#N): 8 ns
fluorescence lifetime (in CC(C)O): 9 ns
fluorescence lifetime (in CCO): 8.7 ns
fluorescence lifetime (in CO): 8.2 ns
fluorescence lifetime (in CS(C)=O): 14.5 ns
fluorescence lifetime (in NC=O): 15.7 ns
fluorescence lifetime (in O): 2 ns
fluorescence lifetime (in OCC(F)(F)F): 1.2 ns
fluorescence lifetime (in [2H]O[2H]): 2.3 ns
SMILES: N#Cc1cccc2cc[nH]c12

fluorescence lifetime (in C1CCCCC1): 4.21 ns
fluorescence lifetime (in CCOC(C)=O): 4.41 ns
fluorescence lifetime (in CO): 4.44 ns
SMILES: Cc1ccccc1C1=C2C=c3c(oc4ccccc34)=[N+]2[B-](F)(F)n2c1cc1c3ccccc3oc12

SMILES: O=C1C(=c2c(=O)c3c4ccccc4cc4cc5ccccc5c2c43)C(=O)c2ccccc21
fluorescence lifetime (in C1CCOC1): 10.7 ns
fluorescence lifetime (in CC#N): 6.9 ns
fluorescence lifetime (in CCCCCC): 12.4 ns
fluorescence lifetime (in Cc1ccccc1): 11.3 ns
fluorescence lifetime (in ClCCl): 8.7 ns

SMILES: COc1ccc(C2=CC(c3ccc4ccccc4c3)=[O+][B-](C(C)=O)(C(C)=O)O2)cc1
fluorescence lifetime (in CC#N): 3 ns
fluorescence lifetime (in ClC(Cl)(Cl)Cl): 1.2 ns

SMILES: COc1ccc(-c2c3ccc([nH]3)c3nc(c(-c4ccc(C#N)cc4)c4ccc([nH]4)c4ccc([nH]4)c(-c4ccc(OC)cc4)c4ccc2o4)C=C3)cc1
fluorescence lifetime (in C1CCOC1): 5.6 ns
fluorescence lifetime (in Cc1ccccc1): 5.65 ns
fluorescence lifetime (in c1ccccc1): 4.88 ns

SMILES: c1ccc(N(c2ccccc2)c2c3ccccc3c(N(c3ccccc3)c3ccccc3)c3ccccc23)cc1
fluorescence lifetime (in Cc1ccccc1): 13 ns

fluorescence lifetime (in CC#N): 0.0002 ns
SMILES: Cc1c[nH]c(=O)[nH]c1=O

SMILES: CC1=CC(C)=[N+]2C1=C(c1ccccc1)c1c(C)c(-c3cccs3)c(C)n1[B-]2(F)F
fluorescence lifetime (in Cc1ccccc1): 3.2 ns

fluorescence lifetime (in ClC(Cl)Cl): 1.6 ns
SMILES: C(#Cc1cccs1)C(C#Cc1cccs1)=Cc1ccc(C=C(C#Cc2cccs2)C#Cc2cccs2)cc1

fluorescence lifetime (in C1CCOC1): 0.93 ns
fluorescence lifetime (in C1COCCO1): 3.6 ns
fluorescence lifetime (in CC#N): 2.17 ns
fluorescence lifetime (in CC(C)O): 1.86 ns
fluorescence lifetime (in CCCCO): 0.96 ns
fluorescence lifetime (in CCCO): 2.03 ns
fluorescence lifetime (in CCOC(C)=O): 1.05 ns
fluorescence lifetime (in CN(C)C=O): 1.77 ns
fluorescence lifetime (in CO): 0.59 ns
fluorescence lifetime (in CS(C)=O): 1.92 ns
fluorescence lifetime (in ClC(Cl)Cl): 2.54 ns
fluorescence lifetime (in O): 1.36 ns
SMILES: N#Cc1coc2ccccc2c1=O

fluorescence lifetime (in CC#N): 1.01 ns
SMILES: Cc1ccc(-c2ccc(/C=C/c3ccc(Cl)cc3)cn2)nc1

fluorescence lifetime (in CCCO): 4.75 ns
SMILES: CCOC(=O)c1ccc2c(c1)[nH]c1c3ccc(C(=O)OCC)cc3[nH]c21

SMILES: NNC(=O)NNN1C(=O)c2cc(S(=O)(=O)[O-])cc3c(N)c(S(=O)(=O)[O-])cc(c23)C1=O
fluorescence lifetime (in C1COCCO1): 3.4 ns
fluorescence lifetime (in CC#N): 10.7 ns
fluorescence lifetime (in CC(C)=O): 4.6 ns
fluorescence lifetime (in CC(C)O): 9.6 ns
fluorescence lifetime (in CCCCCCCCO): 8.8 ns
fluorescence lifetime (in CCO): 9.2 ns
fluorescence lifetime (in CCOC(C)=O): 2.5 ns
fluorescence lifetime (in CO): 9.5 ns
fluorescence lifetime (in CS(C)=O): 10.7 ns
fluorescence lifetime (in O): 5.1 ns
fluorescence lifetime (in OCCO): 7.9 ns
fluorescence lifetime (in c1ccncc1): 6.3 ns

SMILES: CN(C)c1ccc(N(C)C)cc1
fluorescence lifetime (in C1CCCCC1): 6.1 ns

fluorescence lifetime (in CCO): 2.26 ns
fluorescence lifetime (in O): 1.86 ns
SMILES: CN(C)c1ccc2cc3ccc(=[N+](C)C)cc-3oc2c1

SMILES: COc1ccc2c3cccc4c(OC)ccc(c5cccc1c52)c43
fluorescence lifetime (in C1CCOC1): 3.95 ns
fluorescence lifetime (in Cc1ccccc1): 3.6 ns
fluorescence lifetime (in ClC(Cl)(Cl)Cl): 3.65 ns
fluorescence lifetime (in ClC(Cl)Cl): 3.89 ns
fluorescence lifetime (in ClCCl): 4.33 ns
fluorescence lifetime (in c1ccncc1): 4.02 ns

fluorescence lifetime (in C1CCCCC1): 4.2 ns
SMILES: C[Si](C)(C)C#Cc1ccc2c3cccc4cccc(c5cccc1c52)c43

fluorescence lifetime (in O): 8.6 ns
SMILES: O=C(O)CCCCCn1c2ccccc2c(=O)c2cc(Br)ccc21

SMILES: Fc1c(-n2c3ccccc3c3ccccc32)c(-c2nnc(-c3ccccc3)o2)c(-n2c3ccccc3c3ccccc32)c(-n2c3ccccc3c3ccccc32)c1-n1c2ccccc2c2ccccc21
fluorescence lifetime (in Cc1ccccc1): 3.2 ns

fluorescence lifetime (in ClCCl): 3.8 ns
SMILES: COc1ccc(C2=Cc3cc4ccccc4cc3P2(=O)c2ccccc2)cc1 (stereo not drawn)

fluorescence lifetime (in ClC(Cl)Cl): 0.173 ns
SMILES: F[B-]1(F)OC(c2cccc(Br)c2)=Cc2c3ccccc3cc[n+]21

fluorescence lifetime (in CC#N): 0.04 ns
SMILES: COc1ccc(/C=C/c2ccccc2)cc1

SMILES: C#CCNC1=C2C(C)=CC(C)=[N+]2[B-](F)(F)n2c(C)cc(C)c21
fluorescence lifetime (in C1CCCCC1): 1.78 ns
fluorescence lifetime (in CC(C)=O): 0.61 ns
fluorescence lifetime (in CCOC(C)=O): 0.78 ns
fluorescence lifetime (in CO): 0.518 ns
fluorescence lifetime (in OCC(F)(F)F): 0.76 ns

fluorescence lifetime (in ClCCl): 1.4 ns
SMILES: C[Si]1(C)c2cc(-c3cccs3)ccc2C=Cc2ccc(-c3cccs3)cc21

fluorescence lifetime (in C1CCOC1): 2.1 ns
SMILES: CCC1(CC)c2cc(-c3cccs3)ccc2-c2c1c1c(c3c2C(CC)(CC)c2cc(-c4cccs4)ccc2-3)C(CC)(CC)c2cc(-c3cccs3)ccc2-1

fluorescence lifetime (in CCCCCC): 5.54 ns
fluorescence lifetime (in CCCCCCCCO): 4.91 ns
fluorescence lifetime (in CCOC(C)=O): 5.21 ns
fluorescence lifetime (in CN(C)C=O): 4.8 ns
SMILES: CC1=CC(C)=[N+]2C1=Cc1c3ccccc3c(C#Cc3ccsc3)n1[B-]2(F)F

fluorescence lifetime (in ClCCl): 2.02 ns
SMILES: ClP1(Cl)=N[P@@](Cl)(Oc2ccc3ccc4cccc5ccc2c3c45)=N[P@@](Cl)(Oc2ccc3ccc4cccc5ccc2c3c45)=N1

fluorescence lifetime (in C1CCOC1): 2.31 ns
fluorescence lifetime (in C1COCCO1): 2.36 ns
fluorescence lifetime (in CC#N): 2.38 ns
fluorescence lifetime (in CC(C)O): 1.86 ns
fluorescence lifetime (in CCO): 1.93 ns
fluorescence lifetime (in CCOC(C)=O): 2.27 ns
fluorescence lifetime (in CN(C)C=O): 2.4 ns
fluorescence lifetime (in CO): 1.62 ns
fluorescence lifetime (in CS(C)=O): 2.45 ns
fluorescence lifetime (in O): 3.16 ns
SMILES: NS(=O)(=O)c1ccc(N2N=C(c3ccc(O)cc3)CC2c2ccccc2)cc1 (stereo not drawn)

SMILES: Fc1c(F)c(-n2c3ccccc3c3ccccc32)c(F)c(-n2c3ccccc3c3ccccc32)c1-c1nnc(-c2ccccc2)o1
fluorescence lifetime (in Cc1ccccc1): 4.8 ns

fluorescence lifetime (in C1CCOC1): 13.8 ns
fluorescence lifetime (in C1COCCO1): 14.9 ns
fluorescence lifetime (in CC#N): 3.9 ns
SMILES: CN(C)c1ccc2c(c1)C(=O)NC2=O

fluorescence lifetime (in C1CCCCC1): 2.38 ns
fluorescence lifetime (in CC1CCCCC1): 2.32 ns
fluorescence lifetime (in CC#N): 3.2 ns and 2.55 ns
fluorescence lifetime (in CCC(C)CC): 2.38 ns
fluorescence lifetime (in CCCCCC): 2.37 ns
fluorescence lifetime (in CCO): 2.5 ns
fluorescence lifetime (in CCOC(C)=O): 2.46 ns
SMILES: CCN(CC)c1ccc2cc(-c3nc4ccccc4s3)c(=O)oc2c1
